Reference: patent US5138069A (E. I. Du Pont de Nemours and Company, priority 1988, dated 1992)
Where two headings read alike, the source gives them in different places.

Columns and labels:
AII receptor = experiment: Angiotensin II receptor binding (displacement of 3H-AII); details: read-out: Angiotensin II Receptor Binding IC50, rat adrenal cortical microsomes, 2 nM 3H-AII, 1 hour, room temperature
Protocol: The assay was carried out according to the method described by [Glossmann et al., J. Biol. Chem., 249, 825 (1974)], but with some modifications. The reaction mixture contained rat adrenal cortical microsomes (source of AII receptor) in Tris buffer and 2 nM of ^3 H-AII with or without potential AII antagonist. This mixture was incubated for 1 hour at room temperature and the reaction was subsequently terminated by rapid filtration and rinsing through glass micro-fibre filter. Receptor-bound ^3 H-AII trapped in filter was quantitated by scintillation counting.
Compounds listed in Table 26 were tested in the same manner as described for Table 25, except that in the test for antihypertensive effects in renal hypertensive rats, the compounds were administered orally at 30 mg/kg and intravenously at 3 mg/kg.

Renal Hypertensive Rats = experiment: Antihypertensive effects in renal hypertensive rats; type: in vivo; details: Rattus norvegicus; for minimal effective dose at 10 mg/kg / minimal effective dose at 100 mg/kg: Table 25; for minimal effective dose at 10 mg/kg / minimal effective dose at 3 mg/kg: intravenous; for minimal effective dose at 10 mg/kg: 10 mg/kg or less; for minimal effective dose at 100 mg/kg / minimal effective dose at 30 mg/kg: oral; for minimal effective dose at 100 mg/kg: 100 mg/kg or less; for minimal effective dose at 3 mg/kg / minimal effective dose at 30 mg/kg: Table 26
How it was run: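 Renal hypertensive rats (renin-driven AII elevation) dosed orally at 100 mg/kg and/or i.v. via jugular cannula at 10 mg/kg; a second set used 30 mg/kg oral and 3 mg/kg i.v. Arterial pressure recorded continuously via carotid cannula and compared with pretreatment levels.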

[1] = Table 25, tested as sodium salt

IC50 (AII receptor; Table 25) [nM] | SMILES | minimal effective dose at 10 mg/kg (Renal Hypertensive Rats) [mg/kg] | minimal effective dose at 100 mg/kg (Renal Hypertensive Rats) [mg/kg] | also measured
52 | CCCCc1nc(C(F)(F)F)c(C(=O)OCC)n1Cc1ccc(-c2ccccc2-c2nnn[nH]2)cc1 [Example 140I] | < 10 | < 100 | 
470 | CCCCc1ncc(C=O)n1Cc1ccc(-c2ccccc2C(=O)O)cc1 [Example 130] | < 10 | < 100 | 
890 | CCCCc1nc(CO)c([N+](=O)[O-])n1Cc1ccc(-c2ccccc2C(=O)O)cc1 [Example 117] | < 10 | < 100 | 
72 | CCCCc1nc(Cl)c(CCC(=O)N2CCOCC2)n1Cc1ccc(NC(=O)c2ccccc2C(=O)O)cc1 [Example 249] | < 10 | > 100 | 
9600 | CCCCc1nc(Cl)c(CO)n1Cc1ccc(-c2ccccc2-c2c[nH]nn2)cc1 [Example 177] | < 10 | > 100 | 
260 | CCCCc1nc(Cl)c(C(C)C(=O)O)n1Cc1ccc(-c2ccccc2C(=O)O)cc1 (stereo not shown) [Example 116] | < 10 | < 100 | 
20 | CCCCc1nc(Cl)c(C=O)n1Cc1ccc(-c2ccccc2-c2nnn[nH]2)cc1 [Example 132, 2-n-Butyl-4-chloro-1-[(2'-(1H-Tetrazol-5-yl)-biphenyl-4-yl)methyl]imidazole-5-carboxaldehyde] | < 10 | < 100 | 
4400 | CCCCc1nc(CO)c(Cl)n1Cc1ccc(-c2occc2C(=O)O)cc1 (single isomer, unassigned) [Example 179, 2-n-butyl-1-[4-(3-carboxyfuran-2-yl)benzyl]-5-chloro-4-(hydroxymethyl)imidazole] | < 10 | > 100 | 

Second part, the compound before the results:

SMILES | IC50 (AII receptor; Table 25) [nM] | minimal effective dose at 10 mg/kg (Renal Hypertensive Rats) [mg/kg] | minimal effective dose at 100 mg/kg (Renal Hypertensive Rats) [mg/kg] | also measured
CCCCCCCc1nccn1Cc1ccc(NC(=O)c2ccccc2C(=O)O)cc1 [Example 67] | 1100 | < 10 | > 100 | 
CCCCc1nc(C#N)c(C#N)n1Cc1ccc(NC(=O)c2ccccc2NS(=O)(=O)C(F)(F)F)cc1 [Example 75, 2-Butyl-4,5-dicyano-1-[4-((N-trifluoromethanesulfonyl)anthranilamido)-benzyl]imidazole] |  |  |  | IC50 (AII receptor; [1]): 7600 nM; minimal effective dose at 10 mg/kg (Renal Hypertensive Rats; tested as sodium salt): < 10 mg/kg; minimal effective dose at 100 mg/kg (Renal Hypertensive Rats; tested as sodium salt): < 100 mg/kg
CCCCc1nc(Cl)c(CO)n1Cc1ccc(-c2ccccc2C(=O)O)cc1 [Example 94, 2-butyl-1-[(2'-carboxybiphenyl-4-yl)methyl]-4-chloro-5-hydroxymethylimidazole] | 280 | < 10 | < 100 | 
CCCCc1nc(CC(=O)OC)c(Cl)n1Cc1ccc(NC(=O)c2ccccc2C(=O)O)cc1 [Example 3, Methyl 2-butyl-1-[4-(2-carboxybenzamido)benzyl]-5-chloroimidazole-4-acetate] |  |  |  | IC50 (AII receptor; [1]): 420 nM; minimal effective dose at 100 mg/kg (Renal Hypertensive Rats; tested as sodium salt): > 100 mg/kg
CCCc1nc(C(=O)O)c(C(=O)O)n1Cc1ccc(-c2ccccc2-c2nnn[nH]2)cc1 [Example 329] |  |  |  | IC50 (AII receptor; Table 26): 76 nM; minimal effective dose at 3 mg/kg (Renal Hypertensive Rats): < 3 mg/kg; minimal effective dose at 30 mg/kg (Renal Hypertensive Rats): < 30 mg/kg
CCCCc1nc(C(F)(F)F)c(C(=O)O)n1Cc1ccc(-c2ccccc2-c2nn[nH]n2)cc1 [Example 240A] |  |  |  | IC50 (AII receptor; Table 26): 150 nM; minimal effective dose at 3 mg/kg (Renal Hypertensive Rats): < 3 mg/kg; minimal effective dose at 30 mg/kg (Renal Hypertensive Rats): < 30 mg/kg
CCCCc1nc(Cl)c(COC)n1Cc1ccc(C(=O)Nc2nnn[nH]2)cc1 [Example 79] |  |  |  | IC50 (AII receptor; [1]): 500 nM; minimal effective dose at 10 mg/kg (Renal Hypertensive Rats; tested as sodium salt): < 10 mg/kg; minimal effective dose at 100 mg/kg (Renal Hypertensive Rats; tested as sodium salt): > 100 mg/kg
CCCc1nc(Cl)c(CO)n1Cc1ccc(-c2ccccc2C(=O)O)cc1 [Example 108] | 160 | < 10 | < 100 | 
CCCCc1nc(I)c(CO)n1Cc1ccc(-c2ccccc2C(=O)O)cc1 [Example 102] | 61 | < 10 | < 100 | 
CCCc1nc(C(F)(F)C(F)(F)C(F)(F)F)c(CO)n1Cc1ccc(-c2ccccc2-c2nnn[nH]2)cc1 [Example 124K] |  |  |  | IC50 (AII receptor; Table 26): 13 nM; minimal effective dose at 3 mg/kg (Renal Hypertensive Rats): < 3 mg/kg; minimal effective dose at 30 mg/kg (Renal Hypertensive Rats): < 30 mg/kg
CCCCc1nc(Cl)c(-c2nnn[nH]2)n1Cc1ccc(-c2ccccc2-c2nnn[nH]2)cc1 [Example 344, 2-n-Butyl-4-chloro-5-(1H-tetrazol-5-yl)-1-[(2'-(1H-tetrazol-5-yl)biphenyl-4-yl)methyl]-imidazole] |  |  |  | IC50 (AII receptor; Table 26): 160 nM; minimal effective dose at 3 mg/kg (Renal Hypertensive Rats): < 3 mg/kg; minimal effective dose at 30 mg/kg (Renal Hypertensive Rats): < 30 mg/kg
CCCCc1nc(Cl)c(COC)n1Cc1ccc(C(=O)Nc2ccccc2-c2nnn[nH]2)cc1 [Example 81] |  |  |  | IC50 (AII receptor; [1]): 570 nM; minimal effective dose at 10 mg/kg (Renal Hypertensive Rats; tested as sodium salt): > 100 mg/kg; minimal effective dose at 100 mg/kg (Renal Hypertensive Rats; tested as sodium salt): > 100 mg/kg
CCCCc1nc(Cl)c(CNC(=O)OC23CC4CC(CC(C4)C2)C3)n1Cc1ccc(-c2ccccc2C(=O)O)cc1 [Example 154] |  |  |  | IC50 (AII receptor; [1]): 600 nM; minimal effective dose at 10 mg/kg (Renal Hypertensive Rats; tested as sodium salt): < 10 mg/kg; minimal effective dose at 100 mg/kg (Renal Hypertensive Rats; tested as sodium salt): < 100 mg/kg
CCc1nccn1Cc1ccc(NC(=O)c2ccccc2NS(=O)(=O)C(F)(F)F)cc1 [Example 57] | 4900 | < 10 | > 100 | 
CCCCc1nc(Cl)c(CNC(=O)OC)n1Cc1ccc(-c2ccccc2C(=O)O)cc1 [Example 150] |  |  |  | IC50 (AII receptor; [1]): 200 nM; minimal effective dose at 10 mg/kg (Renal Hypertensive Rats; tested as sodium salt): < 10 mg/kg; minimal effective dose at 100 mg/kg (Renal Hypertensive Rats; tested as sodium salt): < 100 mg/kg
CCCCc1nc(Cl)c(CC(=O)OC)n1Cc1ccc(NC(=O)c2cc(C)ccc2NS(=O)(=O)C(F)(F)F)cc1 [Example 53A] | 810 | > 100 | > 100 | 
CCCCc1nc(Cl)c(CO)n1Cc1ccc(-c2ccccc2-c2n[nH]c(C(F)(F)F)n2)cc1 [Example 340, 2-n-Butyl-4-chloro-5-hydroxymethyl-1-[(2'-(5-trifluoromethyl-1,2,4-triazol-3-yl)biphenyl-4-yl)methyl]imidazole] |  |  |  | IC50 (AII receptor; Table 26): 370 nM; minimal effective dose at 3 mg/kg (Renal Hypertensive Rats): < 3 mg/kg; minimal effective dose at 30 mg/kg (Renal Hypertensive Rats): < 30 mg/kg
CCCc1nc(C(F)(F)C(F)(F)C(F)(F)F)c(CO)n1Cc1ccc(-c2ccccc2C(=O)O)cc1 [Example 124G] |  |  |  | IC50 (AII receptor; Table 26): 74 nM; minimal effective dose at 3 mg/kg (Renal Hypertensive Rats): < 3 mg/kg; minimal effective dose at 30 mg/kg (Renal Hypertensive Rats): < 30 mg/kg
CCCCc1nc(Cl)c(C=NNC2=NCCN2)n1Cc1cccc(-c2ccccc2-c2nnn[nH]2)c1 [Example 327D] |  |  |  | IC50 (AII receptor; Table 26): 5200 nM; minimal effective dose at 3 mg/kg (Renal Hypertensive Rats): > 3 mg/kg; minimal effective dose at 30 mg/kg (Renal Hypertensive Rats): > 30 mg/kg
CCCCc1nc(Cl)c(CC(=O)OC)n1Cc1ccc(NC(=O)c2cccc(C)c2NS(=O)(=O)C(F)(F)F)cc1 [Example 36] |  |  |  | IC50 (AII receptor; [1]): 190 nM; minimal effective dose at 10 mg/kg (Renal Hypertensive Rats; tested as sodium salt): < 10 mg/kg; minimal effective dose at 100 mg/kg (Renal Hypertensive Rats; tested as sodium salt): > 100 mg/kg
CCCc1nc(C(F)(F)F)c(C(=O)O)n1Cc1ccc(-c2ccccc2C(=O)O)cc1 [Example 265D] |  |  |  | IC50 (AII receptor; Table 26): 1100 nM; minimal effective dose at 3 mg/kg (Renal Hypertensive Rats): < 3 mg/kg
CCCCc1nc(Cl)c(CC(=O)OC)n1Cc1ccc(NC(=O)c2c(Cl)ccc(Cl)c2C(=O)O)cc1 [Example 16] | 18 | < 10 | > 100 | 
CCCCCc1nccn1Cc1ccc(NC(=O)c2ccccc2C(=O)O)cc1 [Example 65] | 240 | < 10 | > 100 | 
